# Assay results reported in PMC4658230 (Toxicology, 2015).
# Read-outs that look alike come from different tables or passages of the source.
# Tests used:
# mtCYP2E1 [1] = molecular target: T1, mtCYP2E1 (Rattus norvegicus, UniProt P05182); conditions: for Preferred Mechanism: rat liver mitochondria, best of six steady-state mechanisms (DynaFit)
# mtCYP2E1 [2] = molecular target: T1, mtCYP2E1; conditions: mitochondria 2 mg/mL, methanol only
# erCYP2E1 [3] = molecular target: T2, erCYP2E1 (Rattus norvegicus, UniProt P05182); test: Steady-state kinetics of substrate oxidation by rat liver microsomes; conditions: for Preferred Mechanism: rat liver microsomes, best of six steady-state mechanisms (DynaFit)
# T2 sequence (P05182 whole entry): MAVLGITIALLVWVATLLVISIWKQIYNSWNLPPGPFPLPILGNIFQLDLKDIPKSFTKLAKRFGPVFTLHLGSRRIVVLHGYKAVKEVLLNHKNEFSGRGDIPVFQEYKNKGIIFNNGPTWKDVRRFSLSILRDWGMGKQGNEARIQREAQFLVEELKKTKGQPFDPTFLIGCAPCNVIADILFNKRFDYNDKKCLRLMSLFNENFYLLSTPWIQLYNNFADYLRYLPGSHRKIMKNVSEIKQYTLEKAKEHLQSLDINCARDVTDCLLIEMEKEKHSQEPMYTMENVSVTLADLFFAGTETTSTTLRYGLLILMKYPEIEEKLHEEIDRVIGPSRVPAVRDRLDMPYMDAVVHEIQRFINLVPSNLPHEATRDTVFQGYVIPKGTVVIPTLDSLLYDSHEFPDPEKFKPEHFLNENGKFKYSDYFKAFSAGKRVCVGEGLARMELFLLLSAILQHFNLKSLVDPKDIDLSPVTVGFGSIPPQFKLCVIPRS
# erCYP2E1 [4] = molecular target: T2, erCYP2E1; conditions: microsomes 0.5 mg/mL, methanol only
# erCYP2E1 [5] = molecular target: T2, erCYP2E1; conditions: equal CYP2E1 levels in each compartment assumed
# mtCYP2E1 [6] = molecular target: T1, mtCYP2E1; conditions: low concentration (10 μM); equal CYP2E1 levels in each compartment assumed
# [7] = more recent studies of industrial workers; ref Bonanni et al. 2015; cited from earlier work
# [8] = rat liver microsomes 0.5 mg/mL, 1 mM NADPH, 37°C, pH 7.4
# T1 sequence (P05182 2-493 limits assumed): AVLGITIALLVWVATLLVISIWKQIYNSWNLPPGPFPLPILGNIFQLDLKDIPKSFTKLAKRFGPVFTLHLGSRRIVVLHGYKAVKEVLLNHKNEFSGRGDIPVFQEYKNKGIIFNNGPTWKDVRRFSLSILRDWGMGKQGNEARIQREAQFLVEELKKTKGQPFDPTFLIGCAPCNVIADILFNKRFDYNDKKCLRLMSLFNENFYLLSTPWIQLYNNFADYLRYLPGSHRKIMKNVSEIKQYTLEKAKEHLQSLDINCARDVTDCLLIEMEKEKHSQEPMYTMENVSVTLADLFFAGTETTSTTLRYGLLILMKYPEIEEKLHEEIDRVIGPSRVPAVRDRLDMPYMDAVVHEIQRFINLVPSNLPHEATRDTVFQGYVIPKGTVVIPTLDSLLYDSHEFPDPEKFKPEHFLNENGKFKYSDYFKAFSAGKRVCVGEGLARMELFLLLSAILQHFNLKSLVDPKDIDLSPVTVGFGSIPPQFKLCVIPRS
smiles,measurement,setting,value
"O=[N+]([O-])c1ccc(O)cc1 [4-nitrophenol, reference compound]",turnover rate of mtCYP2E1 lower than erCYP2E1,mtCYP2E1 [1]; mtCYP2E1 versus erCYP2E1,nine-fold
same,Preferred Mechanism,mtCYP2E1 [1],One-Site Model (Michaelis-Menten)
same,control (uninhibited) rate of substrate oxidation by mtCYP2E1,mtCYP2E1 [2]; 50 μM substrate,26 pmol/min/pmol CYP2E1
same,control (uninhibited) rate of substrate oxidation by mtCYP2E1,mtCYP2E1 [2]; 500 μM substrate,60 pmol/min/pmol CYP2E1
same,Kss,erCYP2E1 [3]; [8],2000 (1600 to 2600) μM
same,Preferred Mechanism,erCYP2E1 [3],"Two-Site Model, ES active only"
same,control (uninhibited) rate of substrate oxidation by erCYP2E1,erCYP2E1 [4]; 50 μM substrate,290 pmol/min/pmol CYP2E1
same,control (uninhibited) rate of substrate oxidation by erCYP2E1,erCYP2E1 [4]; 500 μM substrate,1080 pmol/min/pmol CYP2E1
Nc1ccccc1 [aniline],Preferred Mechanism,mtCYP2E1 [1],One-Site Model (Michaelis-Menten)
same,turnover rate of mtCYP2E1 lower than microsomal enzyme,mtCYP2E1 [1]; versus erCYP2E1 after first substrate binding event,10 fold
same,control (uninhibited) rate of substrate oxidation by mtCYP2E1,mtCYP2E1 [2]; 50 μM substrate,28 pmol/min/pmol CYP2E1
same,control (uninhibited) rate of substrate oxidation by mtCYP2E1,mtCYP2E1 [2]; 500 μM substrate,58 pmol/min/pmol CYP2E1
same,binding of second molecule weaker than first binding event,"erCYP2E1 [3]; erCYP2E1, rat liver microsomes",25 fold
same,rate of turnover of ternary complex higher than binary enzyme-substrate complex,"erCYP2E1 [3]; erCYP2E1, rat liver microsomes",two-fold
same,Kss,erCYP2E1 [3]; [8],54 (21 to 550) μM
same,kcat,erCYP2E1 [3]; [8],500 (230 to 770) pmol/min/pmol CYP2E1
same,kcat2,erCYP2E1 [3]; [8],1000 (970 to 1300) pmol/min/pmol CYP2E1
same,Preferred Mechanism,erCYP2E1 [3],"Two-Site Model, ES and ESS active"
same,control (uninhibited) rate of substrate oxidation by erCYP2E1,erCYP2E1 [4]; 50 μM substrate,260 pmol/min/mg
same,control (uninhibited) rate of substrate oxidation by erCYP2E1,erCYP2E1 [4]; 500 μM substrate,1000 pmol/min/mg
same,percent of total metabolism through erCYP2E1,erCYP2E1 [5]; high concentration (500 μM),95%
same,percent of total metabolism through erCYP2E1,erCYP2E1 [5]; low concentration (10 μM),approximately 94%
same,percent of total metabolism through mtCYP2E1,mtCYP2E1 [6],about 6%
C=Cc1ccccc1 [styrene],kcat,"mtCYP2E1 [1]; rat liver mitochondria 2 mg/mL, 1 mM NADPH, 37°C, pH 7.4",100 (96 to 110) pmol/min/pmol CYP2E1
same,control (uninhibited) rate of substrate oxidation by mtCYP2E1,mtCYP2E1 [2]; 50 μM substrate,54 pmol/min/pmol CYP2E1
same,control (uninhibited) rate of substrate oxidation by mtCYP2E1,mtCYP2E1 [2]; 500 μM substrate,76 pmol/min/pmol CYP2E1
same,styrene plasma levels,[7],0.06 µM
same,kcat,erCYP2E1 [3]; [8],630 (580 to 690) pmol/min/pmol CYP2E1
same,control (uninhibited) rate of substrate oxidation by erCYP2E1,erCYP2E1 [4]; 50 μM substrate,310 pmol/min/mg
same,control (uninhibited) rate of substrate oxidation by erCYP2E1,erCYP2E1 [4]; 500 μM substrate,390 pmol/min/mg
